{"source": "patent US8685674B2", "about": "“Chondroitin synthase, method for producing the same and method for producing saccharide chain-extended chondroitin” (Glytech, Inc., priority 2001, dated 2014)", "assay_type_in_all_cases": "biochemical", "key": {"[1]": {"biological_target": "T1, soluble chondroitin synthase fused with a cleavable insulin signal sequence and a protein A (Homo sapiens, UniProt Q86X52, R588T)", "T1 construct": "ID; NO: 2; made in house; host or cells: COS-1 cells (transient transfection; secreted fusion protein captured from the medium on IgG-Sepharose beads)", "T1 sequence (Q86X52 47-802 R588T)": "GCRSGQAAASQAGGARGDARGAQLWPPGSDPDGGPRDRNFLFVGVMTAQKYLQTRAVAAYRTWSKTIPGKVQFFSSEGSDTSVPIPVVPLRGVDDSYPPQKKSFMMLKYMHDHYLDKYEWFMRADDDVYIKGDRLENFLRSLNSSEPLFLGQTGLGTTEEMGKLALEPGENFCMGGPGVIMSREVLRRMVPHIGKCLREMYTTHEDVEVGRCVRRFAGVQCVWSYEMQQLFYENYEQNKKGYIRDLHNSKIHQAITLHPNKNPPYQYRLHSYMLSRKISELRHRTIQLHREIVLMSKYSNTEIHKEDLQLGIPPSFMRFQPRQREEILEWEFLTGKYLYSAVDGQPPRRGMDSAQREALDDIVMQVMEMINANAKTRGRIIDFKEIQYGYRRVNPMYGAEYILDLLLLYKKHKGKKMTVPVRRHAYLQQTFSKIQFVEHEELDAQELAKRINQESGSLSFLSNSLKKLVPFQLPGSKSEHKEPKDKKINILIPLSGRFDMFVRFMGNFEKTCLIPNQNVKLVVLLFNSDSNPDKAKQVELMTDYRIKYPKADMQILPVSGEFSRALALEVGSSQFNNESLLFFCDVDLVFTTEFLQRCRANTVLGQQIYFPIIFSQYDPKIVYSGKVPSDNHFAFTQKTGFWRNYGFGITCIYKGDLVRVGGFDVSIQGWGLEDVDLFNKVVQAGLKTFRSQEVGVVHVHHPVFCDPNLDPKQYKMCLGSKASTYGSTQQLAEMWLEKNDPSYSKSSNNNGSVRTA", "test": "GlcUA transferase II (GlcAT-II) assay, chondroitin polymer as receptor, UDP-[14C]GlcUA as donor", "procedure": "(§1) By using FuGENE (Trademark) 6 (Roche Molecular Biochemicals Co., Tokyo), an expression plasmid (6.7 μg) was transfected into a COS-1 cell on a 100 mm plate, in accordance with a manual of the manufacture. On the second day from the transfection, 1 ml of an incubation liquid was collected and incubated together with 10 μL of IgG-Sepharose (Amersham Pharmacia Biotech) at 4° C. for one hour. Beads of the IgG-Sepharose was collected by centrifugation, and then washed with an assay buffer. After that, the beads were resuspended in an assay buffer of the same kind as the assay buffer. The beads were used for assaying GalNAc transferase, GlcUA transferase, and Gal transferase. That is, a fused protein occurred in the incubation liquid was absorbed by IgG-Sepharose so as to remove glycosyltransferases in the incubation liquid. […]\n(§2) Assay of GlcUA transferase I (GlcAT-I), which is necessary for synthesis of tetrasaccharide for the linkage region, was carried out with a mixture of, in 30 μL in total, 10 μL of the resuspended beads, 1 nmol Galβ1-3Galβ1-4Xyl, 14.3 μM UDP-[^14C]GlcUA (1.46×10^5 dpm), 50 mM MES buffer, pH6.5, and 2 mM MnCl2 (FEBS lett. 459, 415-420 (1999)). […] The thus collected labeled products were quantified by liquid scintillation spectroscopy."}, "[2]": {"biological_target": "T1, soluble chondroitin synthase fused with a cleavable insulin signal sequence and a protein A", "test": "GalNAc transferase assay, UDP-[3H]GalNAc as donor", "settings": "for ACTIVITY (receptor specificity): enzyme-bound beads, MES pH 6.5, 10 mM MnCl2, 37° C., one hour, average of two experiments", "procedure": "By using FuGENE (Trademark) 6 (Roche Molecular Biochemicals Co., Tokyo), an expression plasmid (6.7 μg) was transfected into a COS-1 cell on a 100 mm plate, in accordance with a manual of the manufacture. On the second day from the transfection, 1 ml of an incubation liquid was collected and incubated together with 10 μL of IgG-Sepharose (Amersham Pharmacia Biotech) at 4° C. for one hour. Beads of the IgG-Sepharose was collected by centrifugation, and then washed with an assay buffer. After that, the beads were resuspended in an assay buffer of the same kind as the assay buffer. The beads were used for assaying GalNAc transferase, GlcUA transferase, and Gal transferase. That is, a fused protein occurred in the incubation liquid was absorbed by IgG-Sepharose so as to remove glycosyltransferases in the incubation liquid. Then, by using the enzyme bound beads as an enzyme source, glycosyltransferase activity of the fused protein that was bound to the beads was assayed with various receptor substrates and donor substrates.\nAs a receptor for GalNAc transferase, a polymer (167 μg) of chondroitin, α-thrombomodulin (1 nmol), or GlcUAβ1-3Galβ1-3Galβ1-4Xylβ1-0-Ser (1 nmol) was used. Moreover, as a receptor for GlcUA transferase, the polymer (167 μg) of chondroitin or Galβ1-3Galβ1-4Xylβ (1 nmol) was used. As a receptor of Gal transferase, sheep submandibular asialomucin (300 μg) or GlcNAcβ1-3Galβ1-4GlcNAcβ1-3Galβ1-4GlcNAc (1 nmol) was used. […]\nas §2"}, "[3]": {"biological_target": "T1, soluble chondroitin synthase fused with a cleavable insulin signal sequence and a protein A", "test": "GlcUA transferase I (GlcAT-I) assay, UDP-[14C]GlcUA as donor", "settings": "enzyme-bound beads, MES pH 6.5, 2 mM MnCl2, 37° C., one hour, average of two experiments", "procedure": "as §1, §2"}, "[4]": {"biological_target": "T1, soluble chondroitin synthase fused with a cleavable insulin signal sequence and a protein A", "test": "Gal transferase assay, UDP-[3H]Gal as donor", "settings": "enzyme-bound beads, MES pH 6.5, 10 mM MnCl2, 37° C., one hour, average of two experiments", "procedure": "as §1, §2"}}}
{"molecule": "Chondroitin", "values": [{"measurement": "glycosyltransferase activity detected or not (in words)", "setting": "[1]", "value": "Activities were detected"}, {"measurement": "ACTIVITY (receptor specificity)", "setting": "[1]; enzyme-bound IgG-Sepharose beads, pH 5.6, 10 mM MnCl2, 37° C., one hour, average of two experiments", "value": 5.2, "unit": "pmol/ml medium/time"}, {"measurement": "glycosyltransferase activity detected or not (in words)", "setting": "[2]", "value": "Activities were detected"}, {"measurement": "ACTIVITY (receptor specificity)", "setting": "[2]", "value": 1.4, "unit": "pmol/ml medium/time"}]}
{"molecule": "OC[C@H]1O[C@@H](O[C@H]2[C@@H](O)[C@@H](CO)O[C@@H](O[C@@H]3COC(O)[C@H](O)[C@H]3O)[C@@H]2O)[C@H](O)[C@@H](O)[C@H]1O", "note": "(stereo partly shown) [Galβ1-3Galβ1-4Xyl]", "values": [{"measurement": "ACTIVITY (receptor specificity)", "setting": "[3]", "value": "ND (ND: Not Detected (<0.1 pmol/ml medium/time))"}]}
{"molecule": "GlcNAcβ1-3Galβ1-4GlcNAcβ1-3Galβ1-4GlcNAc", "values": [{"measurement": "ACTIVITY (receptor specificity)", "setting": "[4]", "value": "ND (ND: Not Detected (<0.1 pmol/ml medium/time))"}]}
{"molecule": "N[C@@H](CO[C@@H]1OC[C@@H](O[C@@H]2O[C@H](CO)[C@H](O)[C@H](O[C@@H]3O[C@H](CO)[C@H](O)[C@H](O[C@@H]4O[C@H](C(=O)O)[C@@H](O)[C@H](O)[C@H]4O)[C@H]3O)[C@H]2O)[C@H](O)[C@H]1O)C(=O)O", "note": "[GlcUAβ1-3Galβ1-3Galβ1-4Xylβ-O-Ser, GlcUAβ1-3Galβ1-3Galβ1-4Xylβ1-O-Ser]", "values": [{"measurement": "ACTIVITY (receptor specificity)", "setting": "[2]", "value": "ND (ND: Not Detected (<0.1 pmol/ml medium/time))"}]}
